The values that follow come from PubChem BioAssay (NCI).

Test systems include DMS 273 small cell lung; HT29 colon; NCI-H460 lung; NCI-H522 lung; RPMI-8226 leukemia; SF-295 CNS; UACC-257 melanoma; UACC-62 melanoma; HS 578T breast; MDA-N.
What all share (experiment): NCI-60 cell line screen, 48 h

Where “and” joins values, the source holds several entries; their conditions need not be identical. Identical values can stand only once.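 Assay format: 96-well plates, 48-hour exposure. GI50 = concentration required for 50% inhibition of growth. Definition used: TGI = concentration required for complete inhibition of growth.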

In the case of `Cc1ccc(/C=C/C(=O)c2sc(-n3nc(-c4ccccc4)cc3-c3ccccc3)nc2C)cc1`, the TGI with DMS 273 small cell lung, in the test on HT29 colon, in the test with NCI-H460 lung, with NCI-H522 lung, in the test with RPMI-8226 leukemia and in the test with SF-295 CNS was above 100 µM in each case. In addition, the TGI in the test with UACC-257 melanoma and in the test on UACC-62 melanoma was above 100 µM in each case.
Consider `O=C1C=C2CCCC2C(C(=O)O)(C(=O)O)C1` (stereo not given), for which the TGI with DMS 273 small cell lung, in the test with HT29 colon, with NCI-H460 lung, in the test with NCI-H522 lung, in the test with RPMI-8226 leukemia and in the test with SF-295 CNS was above 100 µM each time. Besides, the TGI in the test on UACC-257 melanoma and with UACC-62 melanoma was above 100 µM in each case.
As for `O=C(N=c1nc(NC(=O)c2ccccc2)ss1)c1ccccc1`, the TGI came to 89.1 µM in the test on DMS 273 small cell lung; 37.6 µM with HT29 colon; 39.7 µM in the test with NCI-H460 lung; 42.4 µM in the test with NCI-H522 lung; 77.6 µM with RPMI-8226 leukemia; 70.6 µM with SF-295 CNS. In addition, the TGI with UACC-257 melanoma came to 48.1 µM.
Take `O=C(CC1C(=O)Nc2ccccc2S1(=O)=O)Nc1ccc(Cl)cc1` (stereo not given): the TGI was 45.6 µM in the test with DMS 273 small cell lung; above 100 µM in the test with HT29 colon; above 100 µM in the test with NCI-H460 lung; 36.4 µM in the test with NCI-H522 lung; 29.6 µM in the test on RPMI-8226 leukemia; above 100 µM in the test on SF-295 CNS. For the same compound, the TGI in the test on UACC-257 melanoma was 91.6 µM; in the test on UACC-62 melanoma, above 100 µM.
As for `N#C/C(=C1\OC(=N)C(c2ccccc2)C1=O)c1ccccc1` (stereo not given), the TGI with DMS 273 small cell lung was above 100 µM; with HT29 colon, 57.7 µM; with NCI-H460 lung it was above 100 µM; with NCI-H522 lung it was 22.2 µM; in the test on RPMI-8226 leukemia it was 73.3 µM; with SF-295 CNS, above 100 µM. Moreover, the figures for the TGI in the test on UACC-257 melanoma and in the test on UACC-62 melanoma were 59.3 µM and 52.7 µM, respectively.
Take `C[N+](C)(C)c1cc[c]([Sn]([c]2ccc([N+](C)(C)C)cc2)([c]2ccc([N+](C)(C)C)cc2)[c]2ccc([N+](C)(C)C)cc2)cc1`: the GI50 with DMS 273 small cell lung, in the test on HT29 colon, in the test on NCI-H460 lung, in the test with NCI-H522 lung, in the test on RPMI-8226 leukemia and with SF-295 CNS was above 100 µM throughout. Further, the GI50 in the test on UACC-257 melanoma and with UACC-62 melanoma was above 100 µM in each case. Also, the TGI with DMS 273 small cell lung, in the test with HT29 colon, with NCI-H460 lung, in the test on NCI-H522 lung, with RPMI-8226 leukemia and with SF-295 CNS was above 100 µM throughout. In addition, the TGI with UACC-257 melanoma and in the test on UACC-62 melanoma was above 100 µM throughout.
On to `O=C(CCC(=O)Nc1cccc(C(F)(F)F)c1)CC(=O)c1ccc2ccccc2c1`, for which the TGI with DMS 273 small cell lung, in the test with HT29 colon, in the test on NCI-H460 lung, in the test with NCI-H522 lung, in the test with RPMI-8226 leukemia and in the test with SF-295 CNS was above 100 µM throughout. Further, the TGI with UACC-257 melanoma and in the test with UACC-62 melanoma was above 100 µM each time.
With `CCc1cc2c(O)c(c1)Cc1cc(CC)cc(c1O)Cc1cc(CC)cc(c1O)Cc1cc(CC)cc(c1O)Cc1cc(CC)cc(c1O)Cc1cc(CC)cc(c1O)Cc1cc(CC)cc(c1O)C2`, the TGI with DMS 273 small cell lung, with HT29 colon, in the test with NCI-H460 lung, with NCI-H522 lung, with RPMI-8226 leukemia and with SF-295 CNS was above 100 µM in each case. The TGI with UACC-257 melanoma and with UACC-62 melanoma was above 100 µM each time.
In the case of `C/C=C/C(=O)[O-].C/C=C/C(=O)[O-].N.N.N.N.[Co+3].[O-][Cl+3]([O-])([O-])[O-]`, the GI50 with DMS 273 small cell lung was above 100 µM; in the test on HT29 colon it was above 100 µM; in the test with NCI-H460 lung it was above 100 µM; with NCI-H522 lung, 83.9 µM; in the test on RPMI-8226 leukemia it was above 100 µM; with SF-295 CNS it was above 100 µM. The GI50 in the test on UACC-257 melanoma and with UACC-62 melanoma was above 100 µM each time. Moreover, the TGI with DMS 273 small cell lung, in the test with HT29 colon, in the test with NCI-H460 lung, in the test on NCI-H522 lung, in the test with RPMI-8226 leukemia and in the test with SF-295 CNS was above 100 µM throughout. Further, the TGI in the test with UACC-257 melanoma and in the test on UACC-62 melanoma was above 100 µM throughout.
On to `CCOC(=N)CC(=O)Nc1ccccc1`, for which the TGI with DMS 273 small cell lung is above 46.4 µM; in the test with HT29 colon it was above 46.4 µM; with NCI-H460 lung, above 46.4 µM; in the test on NCI-H522 lung, above 100 µM; in the test with RPMI-8226 leukemia it was 22.8 µM; in the test with SF-295 CNS it was above 100 µM. The TGI with UACC-257 melanoma is above 46.4 µM; in the test with UACC-62 melanoma, above 100 µM.
For the compound `O=C1NC2(CCCCC2)C(=O)N1CCN(CCCl)CCCl`, the TGI in the test with DMS 273 small cell lung was above 223 µM; in the test on HS 578T breast, above 25 µM; in the test with HT29 colon, above 250 µM; in the test with MDA-N, above 25 µM; in the test on NCI-H460 lung, 25 µM and 249 µM; in the test with NCI-H522 lung, > 25 µM and 163 µM. Besides, the TGI in the test on RPMI-8226 leukemia is above 250 µM; in the test on SF-295 CNS it was above 250 µM; with UACC-257 melanoma, above 250 µM; in the test with UACC-62 melanoma, > 25 µM and 242 µM. Besides, the GI50 with HT29 colon is above 25 µM; in the test with NCI-H460 lung it was 15.7 µM; with NCI-H522 lung it was above 25 µM; with RPMI-8226 leukemia it was above 25 µM; in the test on SF-295 CNS, > 25 µM and 138 µM; in the test on UACC-257 melanoma, above 25 µM. In addition, in the test with UACC-62 melanoma, the GI50 is above 25 µM.
`c1ccc2c(c1)Cc1c(Cc3csc4ccccc34)ccc3cccc-2c13`: the TGI in the test on DMS 273 small cell lung, in the test with HT29 colon, in the test on NCI-H460 lung, in the test on NCI-H522 lung, in the test on RPMI-8226 leukemia and in the test with SF-295 CNS was above 100 µM throughout. Besides, the TGI in the test with UACC-257 melanoma and with UACC-62 melanoma was above 100 µM in each case.
